Laboratory results from ChEMBL document CHEMBL2074180, “Human P-glycoprotein transports cyclosporin A and FK506” (J Biol Chem, 1993).

Biological target: ATP-dependent translocase ABCB1 (Homo sapiens, UniProt P08183)
Assay: TP_TRANSPORTER: transepithelial transport of tacrolimus (basal to apical) (Tacrolimus: 6.2 uM) in MDR1-expressing LLC-PK1 cells
Assay type: functional, cell-based
Conditions: pig, llc-pk1, 6.2 µM

ATP-dependent translocase ABCB1, sequence (P08183 whole entry): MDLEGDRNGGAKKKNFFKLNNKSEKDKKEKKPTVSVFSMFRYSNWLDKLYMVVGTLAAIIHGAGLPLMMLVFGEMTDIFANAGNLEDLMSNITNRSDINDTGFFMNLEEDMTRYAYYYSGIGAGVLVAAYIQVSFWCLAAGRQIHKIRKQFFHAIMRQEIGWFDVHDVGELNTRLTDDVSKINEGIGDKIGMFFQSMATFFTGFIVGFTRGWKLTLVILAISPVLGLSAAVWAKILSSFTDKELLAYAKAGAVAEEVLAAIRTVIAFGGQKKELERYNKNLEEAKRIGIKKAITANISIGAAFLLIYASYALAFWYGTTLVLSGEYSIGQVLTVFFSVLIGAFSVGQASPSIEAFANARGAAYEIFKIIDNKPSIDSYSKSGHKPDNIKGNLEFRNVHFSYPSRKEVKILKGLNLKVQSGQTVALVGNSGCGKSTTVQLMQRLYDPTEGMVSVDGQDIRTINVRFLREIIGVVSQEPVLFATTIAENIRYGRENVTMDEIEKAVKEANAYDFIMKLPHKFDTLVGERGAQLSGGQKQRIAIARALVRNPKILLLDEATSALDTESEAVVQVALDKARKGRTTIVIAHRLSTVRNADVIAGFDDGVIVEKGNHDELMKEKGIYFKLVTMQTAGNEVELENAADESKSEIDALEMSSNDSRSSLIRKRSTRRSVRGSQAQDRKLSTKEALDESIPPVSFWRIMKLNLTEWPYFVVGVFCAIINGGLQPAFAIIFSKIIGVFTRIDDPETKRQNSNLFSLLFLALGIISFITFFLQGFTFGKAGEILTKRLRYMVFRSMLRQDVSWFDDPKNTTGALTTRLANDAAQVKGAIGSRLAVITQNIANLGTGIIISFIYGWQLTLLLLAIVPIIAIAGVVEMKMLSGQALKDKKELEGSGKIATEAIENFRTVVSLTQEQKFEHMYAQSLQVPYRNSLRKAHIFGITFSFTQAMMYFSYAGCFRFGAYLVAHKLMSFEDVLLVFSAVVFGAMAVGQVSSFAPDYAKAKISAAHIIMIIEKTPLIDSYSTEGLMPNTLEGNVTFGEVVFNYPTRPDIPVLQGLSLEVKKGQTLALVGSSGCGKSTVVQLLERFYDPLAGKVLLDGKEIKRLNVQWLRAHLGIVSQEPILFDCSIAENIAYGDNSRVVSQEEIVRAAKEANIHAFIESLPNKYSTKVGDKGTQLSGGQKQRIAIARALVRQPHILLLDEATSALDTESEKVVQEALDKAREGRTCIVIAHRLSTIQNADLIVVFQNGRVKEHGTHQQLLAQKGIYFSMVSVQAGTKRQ

Activity: inhibitor [+]
SMILES: C=CC[C@@H]1/C=C(\C)C[C@H](C)C[C@H](OC)[C@H]2O[C@@](O)(C(=O)C(=O)N3CCCC[C@H]3C(=O)O[C@H](/C(C)=C/[C@@H]3CC[C@@H](O)[C@H](OC)C3)[C@H](C)[C@@H](O)CC1=O)[C@H](C)C[C@@H]2OC [TACROLIMUS ANHYDROUS]
